According to patent US7335814B2, “Transgenic cells expressing glucosyltransferase nucleic acids” (The University of York, priority 2000, dated 2008):

Tests used:
Format in all cases: biochemical
recombinant GTase A407 = molecular target: T1, recombinant GTase A407 (Arabidopsis thaliana, UniProt O81498); assay: Specific activity of recombinant GTase producing O-glucosides against lignin precursors (HPLC); details: 30° C.; ND = not detected
T1 construct: made in house; host or cells: E. coli
T1 sequence (O81498 1-481): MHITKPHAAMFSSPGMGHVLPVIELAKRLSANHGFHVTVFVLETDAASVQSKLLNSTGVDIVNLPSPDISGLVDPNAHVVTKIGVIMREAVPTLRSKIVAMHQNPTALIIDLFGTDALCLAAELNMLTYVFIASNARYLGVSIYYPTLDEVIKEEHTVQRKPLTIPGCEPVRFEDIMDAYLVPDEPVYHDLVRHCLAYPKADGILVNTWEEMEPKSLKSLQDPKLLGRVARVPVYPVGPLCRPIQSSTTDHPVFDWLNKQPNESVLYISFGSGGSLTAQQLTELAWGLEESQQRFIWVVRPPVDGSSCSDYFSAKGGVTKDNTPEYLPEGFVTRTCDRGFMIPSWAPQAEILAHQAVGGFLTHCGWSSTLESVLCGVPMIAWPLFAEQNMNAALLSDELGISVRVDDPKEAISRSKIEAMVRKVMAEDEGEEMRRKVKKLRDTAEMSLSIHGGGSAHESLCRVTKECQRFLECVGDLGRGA

recombinant GTase A43 = molecular target: T2, recombinant GTase A43 (Arabidopsis thaliana, UniProt O23402); assay: Specific activity of recombinant GTase producing glucose ester against lignin precursors (HPLC); details: 0.5 ml of potential substrates, 5 mM UDPG, 0.2 μg GTase, 200 μl, 20° C., 30 min
T2 construct: made in house; host or cells: E. coli

recombinant GTase A062 = molecular target: T3, recombinant GTase A062 (Arabidopsis thaliana, UniProt Q9LR44); assay: as above; details: 0.5 ml of potential substrates, 5 mM UDPG, 0.2 μg GTase, 200 μl, 20° C., 30 min
T3 construct: made in house; host or cells: E. coli
T3 sequence (Q9LR44 1-469): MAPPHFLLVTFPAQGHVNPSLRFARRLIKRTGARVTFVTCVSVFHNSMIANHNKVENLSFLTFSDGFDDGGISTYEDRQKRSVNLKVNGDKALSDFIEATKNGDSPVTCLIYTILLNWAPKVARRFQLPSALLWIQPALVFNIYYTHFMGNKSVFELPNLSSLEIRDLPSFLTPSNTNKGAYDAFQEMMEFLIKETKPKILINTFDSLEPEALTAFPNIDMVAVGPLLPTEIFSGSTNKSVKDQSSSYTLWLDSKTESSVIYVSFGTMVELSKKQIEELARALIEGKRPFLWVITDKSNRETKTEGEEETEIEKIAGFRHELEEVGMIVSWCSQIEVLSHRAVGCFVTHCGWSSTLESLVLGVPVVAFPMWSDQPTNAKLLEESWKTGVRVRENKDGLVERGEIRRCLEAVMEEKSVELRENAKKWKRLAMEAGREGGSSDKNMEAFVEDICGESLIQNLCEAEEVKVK

recombinant GTase A42 = molecular target: T4, recombinant GTase A42 (Arabidopsis thaliana, UniProt O23401); assay: as above; details: 0.5 ml of potential substrates, 5 mM UDPG, 0.2 μg GTase, 200 μl, 20° C., 30 min
T4 construct: made in house; host or cells: E. coli
T4 sequence (O23401 1-479): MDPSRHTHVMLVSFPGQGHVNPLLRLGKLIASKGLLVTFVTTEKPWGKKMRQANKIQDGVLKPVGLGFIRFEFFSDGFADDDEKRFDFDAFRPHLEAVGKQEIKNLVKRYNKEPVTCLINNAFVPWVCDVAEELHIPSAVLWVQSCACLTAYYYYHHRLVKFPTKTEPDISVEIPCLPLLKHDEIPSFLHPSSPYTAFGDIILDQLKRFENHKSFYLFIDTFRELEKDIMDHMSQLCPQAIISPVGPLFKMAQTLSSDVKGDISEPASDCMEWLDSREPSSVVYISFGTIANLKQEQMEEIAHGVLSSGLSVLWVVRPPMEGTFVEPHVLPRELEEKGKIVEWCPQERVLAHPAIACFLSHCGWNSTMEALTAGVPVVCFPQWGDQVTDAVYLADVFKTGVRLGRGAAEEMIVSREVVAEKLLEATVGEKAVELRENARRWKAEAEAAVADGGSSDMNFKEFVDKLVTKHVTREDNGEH

UGT71C1 = molecular target: T5, UGT71C1 (Arabidopsis thaliana, UniProt O82381); assay: UGT71C1 glucosyltransferase specific activity towards phenolic compounds (reverse-phase HPLC); details: 1 mM phenolic compound, 5 mM UDP-glucose, 50 mM TRIS-HCl pH 7.0, 30° C., 30 min; mean of three replicates ± standard deviation
T5 construct: GST (N); made in house; host or cells: E. coli
T5 sequence (O82381 1-481): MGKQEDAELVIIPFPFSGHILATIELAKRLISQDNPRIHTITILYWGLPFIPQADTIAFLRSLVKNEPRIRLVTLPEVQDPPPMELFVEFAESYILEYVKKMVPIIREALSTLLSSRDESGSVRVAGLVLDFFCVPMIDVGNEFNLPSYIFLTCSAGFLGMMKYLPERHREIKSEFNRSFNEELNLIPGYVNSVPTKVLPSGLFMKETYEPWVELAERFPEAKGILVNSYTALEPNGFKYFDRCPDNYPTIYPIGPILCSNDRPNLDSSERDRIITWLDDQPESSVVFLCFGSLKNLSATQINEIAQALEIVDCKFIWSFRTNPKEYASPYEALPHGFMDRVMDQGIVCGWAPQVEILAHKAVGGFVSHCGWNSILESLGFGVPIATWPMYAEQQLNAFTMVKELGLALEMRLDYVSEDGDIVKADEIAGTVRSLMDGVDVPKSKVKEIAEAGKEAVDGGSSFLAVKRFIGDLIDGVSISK

recombinant GTase A41 = molecular target: T6, recombinant GTase A41 (Arabidopsis thaliana, UniProt Q5XF20); assay: Specific activity of recombinant GTase producing glucose ester against lignin precursors (HPLC); details: 5 mM UDPG, 0.2 μg GTase, 200 μl, 20° C., 30 min
T6 construct: made in house; host or cells: E. coli
T6 sequence (Q5XF20 7-490): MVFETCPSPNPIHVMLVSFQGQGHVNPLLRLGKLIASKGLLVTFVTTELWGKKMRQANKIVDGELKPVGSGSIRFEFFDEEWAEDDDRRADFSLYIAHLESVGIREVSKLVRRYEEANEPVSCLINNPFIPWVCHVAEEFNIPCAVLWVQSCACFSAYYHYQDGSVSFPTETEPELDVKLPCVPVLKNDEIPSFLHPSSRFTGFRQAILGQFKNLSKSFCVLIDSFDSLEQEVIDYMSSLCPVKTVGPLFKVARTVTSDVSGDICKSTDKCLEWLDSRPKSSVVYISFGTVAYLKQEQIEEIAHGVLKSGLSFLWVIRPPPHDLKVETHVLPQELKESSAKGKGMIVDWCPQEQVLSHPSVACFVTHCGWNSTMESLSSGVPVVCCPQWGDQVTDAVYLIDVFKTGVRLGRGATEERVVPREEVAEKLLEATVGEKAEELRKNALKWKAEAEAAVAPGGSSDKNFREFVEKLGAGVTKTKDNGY

Structure (SMILES)	Specific activity of A407 (substrate converted to 4-O-glucoside) (recombinant GTase A407) [nkat/mg]	Specific activity of A43 (substrate converted to glucose ester) (recombinant GTase A43) [nkat/mg]	Specific activity of A062 (substrate converted to glucose ester) (recombinant GTase A062) [nkat/mg]	Specific activity of A42 (substrate converted to glucose ester) (recombinant GTase A42) [nkat/mg]	Specific activity (UGT71C1) (UGT71C1) [nkat/mg]	Specific activity of A41 (substrate converted to glucose ester) (recombinant GTase A41) [nkat/mg]
COc1cc(/C=C/C(=O)O)ccc1O [Ferulic acid, ferulic acid]	0.25	0.04	0.08	15.63	0	6.64
O=C(O)/C=C/c1ccc(O)cc1 [p-coumaric acid]	0.01	0.03	2.54	4.69	0	13.53
